Where two headings read alike, the source gives them in different places.
Columns and labels:
HepG2 cells [1] = test: Live cell fluorescence imaging of compounds in HepG2 cells; format: cell-based, human; details: 3 μM, 30 minutes incubation, washed
Protocol: NAMPT knockdown in HepG2 cells was performed by transfection of NAMPT siRNA synthesized by Shanghai GenePharma Co., Ltd (Shanghai, China). The siRNA sequence targeting NAMPT corresponded to coding regions (5′-[…]-3′, 5′-[…]-3′) of the NAMPT gene. The nonspecific siRNA oligonucleotides (synthesized by Shanghai GenePharma Co., Ltd, Shanghai, China) were used as negative controls. 10 nM of NAMPT siRNA or nonspecific siRNA were transfected into HepG2 cells with Lipofectamine RNAiMax reagent (Invitrogen, CA, USA) according to the manufacturer’s instructions. After 24 or 48 hours, transfected cells were subjected to subsequent analysis.
For imaging experiment, HepG2 cells or primary hepatocytes were seeded into 35-mm glass bottom dishes (In Vitro Scientific). The following day, compounds were added to the medium at a final concentration of 3 μM. After 30 minutes, cells were rinsed twice with PBS (pH 7.5), then incubated in fresh culture medium and imaged on a fluorescence microscope (IX-71, Olympus) with a digital camera (Olympus). After 4 hours, these cells were imaged once again. Digital images were recorded and analyzed using ImageJ.

HepG2 cells [2] = test: Cell viability assay (CCK-8) in HepG2 cells; format: cell-based, human; details: for IC50: HepG2, 48 h, CCK-8, read-out: IC50 for inhibitory effect on HepG2 cell viability
Protocol: (§1) Cell viability was determined by our previous method[27] using the Cell Counting Kit-8 (CCK-8, Dojindo, Japan). In human hepatocellular carcinoma cell line HepG2, cells were seeded in 96-well plate and starved for over 12 h with serum-free DMEM at 60~70% confluency, then treated with compounds or vehicle for 48 h. To determine the IC50 values of inhibitors, compounds with various concentrations were added into the 96-well plate. 10 μl CCK-8 solution was added to the culture medium and incubated at 37 °C for 1 h. The absorbance at 450 nm (A450) was detected by a plate reader. Each experiment was carried out in triplicate in three replicate wells. The IC50 values were determined by non-linear fitting of the concentration-dependent curves with the four-parameter IC50 logistic equation.

[3] = system: primary mouse hepatocytes; test: Cell viability of primary hepatocytes from normal mice; format: cell-based; details: 30 μM
Protocol: as §1
Hepatocytes were isolated from mouse liver by the two-step collagenase perfusion method. […] For imaging experiment, 1 × 10^5 cells were plated in a 35-mm glass bottom dishes or 5 × 10^4 were plated in 48-well plate for cell viability assay in DMEM supplemented with 10% FBS and antibiotics, and kept under an atmosphere of 95% air and 5% CO2 at 37 °C.

Huh-7 cell = test: Cell viability in Huh-7 cells; format: cell-based, human; details: Huh-7, Figure S2
Text: However, IC50 values for other 5 fluorescent compounds were able to be determined (Supplemental dataset S2). We then measured the fluorescence of all 9 fluorescent compounds at a series of different concentrations.

HepG2 NAD levels = test: Cellular NAD measurement (enzymatic cycling assay) in HepG2 cells; format: cell-based, human
Protocol: Cellular level of NAD was measured by spectrophotometric enzymatic cycling assay, as described previously. Briefly, cells were seeded in 96-well plate and starved for over 12 h with serum-free DMEM at 60~70% confluency, following by treatment with compounds or vehicle for 24 h. Cells were lysed with 50 μl of 1M HClO4 on ice for 30 min. The lysates were cleared by centrifuging at 4 °C at 18,000 × g for 5 min, and cleared lysates (40 μl) were neutralized by adding 1M K2CO3 (16 μl) and incubation on ice for 20 min. After centrifuging for 10 min, 10 μl of supernatant were mixed with reaction buffer [50 mM Tris-HCl (pH 7.5), 3% ethanol, 1.66 mM PES (phenazineethosulfate), 0.42 mM MTT (3-(4,5-dimethylthiazolyl-2)-2,5-diphenyltetrazolium bromide), 90 μg/ml ADH] in a total volume of 100 ul, and incubated at 37 °C for 40 min. The absorbance at 570 nm was determined. A blank measurement without ADH was also carried out. Each experiment was carried out in triplicate in three replicate wells

**Q.** Which “Cellular fluorescence in living HepG2 cells” value (HepG2 cells [1]) does the source give for Cc1nc2ccccc2n(Cc2ccc(C(=O)NCc3cccnc3)cc2)c1=O [F671-0003] here?
**A.** did not show any fluorescence

**Q.** What about the “Effect on HepG2 cell viability at 2 μM” value (HepG2 cells [2]; 2 μM, 48 hours of incubation) of the same compound?
**A.** significant inhibition on cell viability

**Q.** What about the “Inhibition on cell viability” value (HepG2 cells [2]; HepG2, 2 μM, 48 h) of the same compound?
**A.** 50%

**Q.** What about the “Rescue of cell viability by exogenous NMN” value (HepG2 cells [2]; HepG2, 3 μM compound, NMN at 300 μM) of the same compound?
**A.** totally rescued

**Q.** What about the IC50 (HepG2 cells [2]) of the same compound?
**A.** 1690 ± 150 nM

**Q.** What about the IC50 (HepG2 cells [2]; Homo sapiens) of the same compound?
**A.** ~2000 nM

**Q.** What about the “Inhibition of normal hepatocytes viability” value [3] of the same compound?
**A.** ~ 20%

**Q.** And the “Effect on Huh-7 cell viability” value (Huh-7 cell)?
**A.** Inhibitory effects

**Q.** What about the “Decrease of cellular NAD level” value (HepG2 NAD levels; HepG2, 1 μM, 24 hours) of the same compound?
**A.** ~ 80%

**Q.** And the IC50 (HepG2 NAD levels; Homo sapiens, HepG2, 24 hours treatment, read-out: IC50 for reducing NAD level)?
**A.** 6.71 nM

Reference: PMC4521150, “Discovery of Novel Inhibitors and Fluorescent Probe Targeting NAMPT” (Scientific Reports, 2015)
